In patent US10143718B2, “Covalent inhibitors of dual oxidase 1 (DUOX 1)” (The University of Vermont and State Agricultural College, priority 2015, dated 2018):
Entries after “also recorded” stand apart in the source; their conditions may differ.

Key:
cellular GSH = test: Cellular GSH depletion; assay type: cell-based; conditions: at concentrations inhibiting allergen-induced IL-33 secretion and H2O2 production
DUOX1 [1] = target: T1, DUOX1 (Homo sapiens, UniProt Q9NRD9); test: Extracellular H2O2 production by HBE1 cells as a measure of DUOX1 activation (lactoperoxidase/tyrosine, HPLC); assay type: cell-based; conditions: for ATP-induced H2O2 production: electrophile 30 min prior to ATP stimulation, media collected after 10 min, 1-30 micromolar for food-derived electrophiles
T1 construct: endogenous in cells; host or cells: HBE1 (immortalized human bronchial epithelial cells)
Source text: (§1) Based on identifying the involvement of Ca^2+-dependent DUOX1 activation and subsequent EGFR activation in allergen-induced IL-33 secretion from epithelial cells), the impact of acrolein exposure on allergen-induced Ca^2+ increases, extracellular H2O2 production (as a measure of DUOX1 activation) and EGFR tyrosine phosphorylation (as an indicator of EGFR activation) were studied.
Preliminary studies of DUOX1 targeting by electrophiles. Acrolein (2,3-propenal) is a highly reactive electrophile and a well-recognized environmental pollutant. In this example, other electrophilic compounds with similar chemical reactivity were determined to be capable of inhibiting allergen-induced DUOX1 activation. These studies were performed using immortalized human bronchoepithelial cells (HBE1) which were cultured and exposed to different electrophiles at various doses for 30 min prior to cell stimulation with HDM or with ATP (a known activator of DUOX1). Conditioned culture media was collected 10 min after cell stimulation and mixed for 15 min with 10 micrograms/mL lactoperoxidase (Sigma) and 1 mM tyrosine (Gibco), which results in formation of fluorescent dityrosine product as a function of H2O2 concentration, and was analyzed by HPLC with fluorescence detection and compared with exogenous standards based on similarly treated stock solutions of H2O2. The resulting data were corrected for basal H2O2 production by unstimulated cells and ATP-dependent H2O2 production in the presence of electrophiles were expressed relative to that by ATP alone (which was set at 100%).

[2] = tested on: allergen-mediated Ca^2+ increases; test: Allergen-induced Ca2+ increases in epithelial cells; assay type: cell-based; conditions: non-toxic concentrations (3-30 micromolar)
Source text: as §1

DUOX1 [3] = target: T1, DUOX1; test: ARP labeling of DUOX1 in HBE1 cells (biotin tag, avidin purification, western blot); assay type: binding; conditions: 0, 10, or 30 micromolar for 30 minutes
Source text: Since these various electrophiles act primarily by targeting susceptible cysteine residues by Michael addition, it was believed that they may directly target DUOX1 protein on one of its accessible cysteine residues within its extracellular peroxidase homology (PHD) domain. […] Moreover, since the PHD domain is unique to DUOX and not present in other NADPH oxidase isoforms, this targeting approach would avoid non-selective actions on these other isoforms, a common problem with most NADPH oxidase inhibitors currently in development. To determine whether acrolein-mediated inhibition of DUOX1 activity (FIG. 4) was associated with direct targeting of DUOX1 protein, HBE1 cells were treated with 0, 10, or 30 micromolar acrolein for 30 minutes and derivatized cell lysates with aldehyde reactive probe (ARP; Pierce), which converts acrolein-induced Michael adducts to induce a biotin tag. Biotin-tagged proteins were subsequently purified by avidin chromatography and collected biotin-tagged proteins (eluates) were then analyzed by 10% SDS-PAGE and western blotting with an alpha-DUOX1 antibody. Whole cell lysate were analyzed accordingly as loading controls.

EGFR = test: Allergen-induced EGFR tyrosine phosphorylation (EGFR activation); assay type: cell-based; conditions: non-toxic concentrations (3-30 micromolar)
Source text: as §1

[4] = tested on: mouse tracheal epithelial cells; test: Allergen-induced cytokine secretion from cultured mouse tracheal epithelial cells; assay type: cell-based; conditions: for HDM-induced IL-33 secretion (culture media): mouse tracheal epithelial cells, pretreated 30 minutes, then HDM for 2 hrs
Procedure: (§2) Cells were pretreated with acrolein (ACR), cinnamaldehyde (CIN), curcumin (Curc) or sulforaphane (SFN) for 30 minutes and then stimulated with HDM for 2 hrs. IL-33 was measured in culture media.

[5] = tested on: human bronchial epithelial cell line HBE1; test: Allergen-induced cytokine secretion from HBE1 cells; assay type: cell-based; conditions: acrolein pretreatment
Procedure: as §2

[6] = tested on: allergic inflammation and mucus metaplasia; test: Acrolein exposure in a mouse model of allergic asthma; assay type: in vivo; conditions: non-toxic doses of acrolein
[7] = tested on: innate airway responses to HDM; test: Acrolein inhalation, then allergen challenge; BAL cytokines analyzed; assay type: in vivo; conditions: mice; acrolein 5 ppm, 4 hrs; then HDM (50 micrograms) or Alternaria alternata challenge; BAL 1 hour later
Procedure: Electrophilic compounds can suppress allergic inflammation and innate allergen responses. […] Mice were exposed to acrolein (5 ppm; 4 hrs, and subsequently challenged with HDM (50 micrograms), and BAL cytokines were analyzed 1 hour later.

T1 sequence (Q9NRD9 22-1551): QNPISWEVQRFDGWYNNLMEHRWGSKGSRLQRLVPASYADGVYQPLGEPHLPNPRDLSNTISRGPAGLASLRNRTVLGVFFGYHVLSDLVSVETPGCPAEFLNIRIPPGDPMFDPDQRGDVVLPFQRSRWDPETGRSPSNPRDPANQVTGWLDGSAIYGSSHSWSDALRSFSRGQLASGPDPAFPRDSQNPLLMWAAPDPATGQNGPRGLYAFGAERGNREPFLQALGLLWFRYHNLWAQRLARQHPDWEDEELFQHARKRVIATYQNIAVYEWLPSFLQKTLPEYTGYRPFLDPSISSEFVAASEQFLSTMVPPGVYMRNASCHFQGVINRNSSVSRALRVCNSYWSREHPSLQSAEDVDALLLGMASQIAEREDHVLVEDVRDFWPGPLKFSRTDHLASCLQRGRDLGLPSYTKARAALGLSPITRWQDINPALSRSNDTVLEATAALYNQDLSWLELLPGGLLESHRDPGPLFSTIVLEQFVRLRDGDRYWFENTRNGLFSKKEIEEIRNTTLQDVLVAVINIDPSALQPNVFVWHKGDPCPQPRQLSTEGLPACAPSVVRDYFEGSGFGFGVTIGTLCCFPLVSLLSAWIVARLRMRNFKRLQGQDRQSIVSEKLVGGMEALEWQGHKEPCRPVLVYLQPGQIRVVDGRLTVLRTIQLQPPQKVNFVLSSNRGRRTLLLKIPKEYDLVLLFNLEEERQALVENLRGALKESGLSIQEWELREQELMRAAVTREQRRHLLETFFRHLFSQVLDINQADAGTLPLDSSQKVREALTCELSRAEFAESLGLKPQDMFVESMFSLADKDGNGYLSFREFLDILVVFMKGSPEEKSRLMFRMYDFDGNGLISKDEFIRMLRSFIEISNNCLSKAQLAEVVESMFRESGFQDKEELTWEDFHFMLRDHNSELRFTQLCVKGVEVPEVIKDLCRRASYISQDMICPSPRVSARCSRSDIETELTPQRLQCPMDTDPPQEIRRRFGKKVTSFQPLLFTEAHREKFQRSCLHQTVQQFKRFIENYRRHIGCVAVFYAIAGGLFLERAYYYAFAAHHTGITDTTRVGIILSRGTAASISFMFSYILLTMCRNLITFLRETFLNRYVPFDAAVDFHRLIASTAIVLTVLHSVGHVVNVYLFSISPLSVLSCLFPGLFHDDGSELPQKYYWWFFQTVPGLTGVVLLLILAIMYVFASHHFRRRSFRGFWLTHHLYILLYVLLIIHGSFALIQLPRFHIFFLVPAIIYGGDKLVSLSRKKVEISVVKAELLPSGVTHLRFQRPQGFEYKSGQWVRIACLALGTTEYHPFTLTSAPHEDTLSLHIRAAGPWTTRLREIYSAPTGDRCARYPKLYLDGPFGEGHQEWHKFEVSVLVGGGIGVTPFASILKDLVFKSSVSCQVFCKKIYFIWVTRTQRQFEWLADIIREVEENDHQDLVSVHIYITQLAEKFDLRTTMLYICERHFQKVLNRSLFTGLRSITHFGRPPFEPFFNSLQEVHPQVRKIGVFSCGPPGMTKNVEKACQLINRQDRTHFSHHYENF

C=CC=O [acrolein, 2,3-propenal]
cellular GSH depletion (cellular GSH): occurred in the absence of cellular GSH depletion
ATP-induced H2O2 production (DUOX1 [1]): dose-dependent inhibition
allergen-induced extracellular H2O2 production (DUOX1 [1]; non-toxic concentrations (3-30 micromolar)): markedly suppressed; also recorded: inhibits allergen-induced H2O2 production
allergen-mediated Ca^2+ increases [2]: did not affect allergen-mediated Ca^2+ increases
ARP labeling of DUOX1 (direct adduct with DUOX1) (DUOX1 [3]): induced dose-dependent ARP labeling of DUOX1
allergen-induced EGFR autophosphorylation (EGFR): markedly suppressed allergen-induced EGFR autophosphorylation
allergen-induced secretion of IL-33, IL-1α or IL-17E ([4]; cultured tracheal epithelial cells from mice, acrolein pretreatment): inhibits allergen-induced secretion of IL-33, IL-1α or IL-17E in a dose-dependent manner
HDM-induced IL-33 secretion (culture media) [4]: inhibited HDM-induced IL-33 secretion
allergen-induced secretion of IL-33, IL-1α or IL-17E [5]: inhibits allergen-induced secretion of IL-33, IL-1α or IL-17E in a dose-dependent manner
allergic inflammation and mucus metaplasia [6]: dramatically suppress allergic inflammation and mucus metaplasia
production of IL-33, IL-1α or IL-17E (BAL cytokines) [7]: dramatically minimized production of IL-33, IL-1α or IL-17E

O=C/C=C/c1ccccc1 [cinnamaldehyde, (2E)-3-phenylprop-2-enal]
ATP-induced H2O2 production (DUOX1 [1]): capable of inhibiting ATP-mediated H2O2 production; also recorded: dose-dependent inhibition
HDM-induced IL-33 secretion (culture media) [4]: inhibited HDM-induced IL-33 secretion

COc1cc(/C=C/C(=O)CC(=O)/C=C/c2ccc(O)c(OC)c2)ccc1O [curcumin, (1E,6E)-1,7-Bis(4-hydroxy-3-methoxyphenyl)-1,6-heptadiene-3,5-dione]
ATP-induced H2O2 production (DUOX1 [1]): capable of inhibiting ATP-mediated H2O2 production
HDM-induced IL-33 secretion (culture media) [4]: inhibited HDM-induced IL-33 secretion

C=CS(=O)(=O)Oc1ccccc1 [phenyl vinyl sulfonate]
ATP-induced H2O2 production (DUOX1 [1]): dose-dependent inhibition

C=CS(=O)(=O)c1ccccc1 [phenyl vinyl sulfone]
ATP-induced H2O2 production (DUOX1 [1]): Inhibitory effects

C[S+]([O-])CCCCN=C=S (stereo not shown) [sulforaphane, 1-Isothiocyanato-4-methylsulfinylbutane]
ATP-induced H2O2 production (DUOX1 [1]): capable of inhibiting ATP-mediated H2O2 production; also recorded: dose-dependent inhibition
HDM-induced IL-33 secretion (culture media) [4]: inhibited HDM-induced IL-33 secretion
